Experimental data from patent publication USRE47689E1, “Compounds for treating spinal muscular atrophy” (PTC Therapeutics, Inc., priority 2011, dated 2019).
Counter-ions that a name gives are not always drawn. Like-named read-outs stand apart in the source and are kept apart here.

Assays:
[1] = test system: SMN2 minigene (full length SMN2 minigene mRNA containing SMN2 exon 7); experiment: SMN2 minigene mRNA splicing RT-qPCR assay in cultured cells; type: cell-based, human; conditions: for EC (1.5-fold): Homo sapiens, HEK293-H, read-out: EC1.5x for production of full length SMN2 mRNA
Outline: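 HEK293H cells stably carrying the SMN2-A minigene treated 24 h at 37° C with compound (DMSO, 200× stock), then lysed. Multiplex RT-qPCR (SMN primers 0.4 μM final; 40 cycles) measures full-length exon 7-containing minigene mRNA, normalized to GAPDH and to vehicle; EC1.5x derived and binned by stars.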

Smn protein = Smn protein assay in cultured cells (SMN HTRF); type: cell-based, human; conditions: for EC1.5x (concentration giving 1.5-fold Smn protein increase): read-out: EC1.5x for Smn protein expression
Outline: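 Lysates in RIPA with protease inhibitors are incubated overnight at room temperature with HTRF anti-SMN antibodies. EC1.5x is derived from fold increase in ΔF over vehicle.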

[2] = HEK293H cells stably transfected with SMN2-A minigene, 24 hours, 7-point concentration curve, 1.5-fold relative to vehicle-treated cells
[3] = SMA Type 1 patient fibroblast cells (GM03813), 48 hours, 7-point concentration curve, SMN HTRF, concentration producing 1.5 times Smn protein vs DMSO vehicle control
[4] = SMA patient fibroblast cells, 48 hours, 7-point concentration data, fold increase relative to vehicle control (SMN HTRF)

Row | SMILES | EC (1.5-fold) [1, 2] [µM] | EC1.5x (concentration giving 1.5-fold Smn protein increase) (Smn protein; [3]) [nM] | maximum fold (Fold) increase of Smn protein (Smn protein; [4]) | EC (1.5-fold) ([1]; 24 h) [µM] | maximum fold (Fold) increase of Smn protein (Smn protein) | EC1.5x (concentration giving 1.5-fold Smn protein increase) (Smn protein) [nM] | EC1.5x for production of full length SMN2 mRNA [1, 2]
1 | Cc1cn2cc(-c3cc4ccc(N5CC6(CNC6)C5)cc4oc3=O)cc(F)c2n1 [Compound 985, 7-(2,6-diazaspiro[3.3]hept-2-yl)-3-(8-fluoro-2-methylimidazo[1,2-a]pyridin-6-yl)-2H-chromen-2-one] | < 0.1 | < 300 | ***** (fold increase >1.65) |  |  |  | 
2 | Cc1cn2cc(-c3cc4ccc(N5CCN[C@@H](C)C5)cc4oc3=O)nc2cn1 [Compound 569, 3-(6-methylimidazo[1,2-a]pyrazin-2-yl)-7-[(3S)-3-methylpiperazin-1-yl]-2H-chromen-2-one] | < 0.1 | < 300 | ***** (fold increase >1.65) |  |  |  | 
3 | Cc1cn2cc(-c3cc4ccc(N5CCN[C@H](C)C5)cc4oc3=O)nc2cn1 [Compound 570, 3-(6-methylimidazo[1,2-a]pyrazin-2-yl)-7-[(3R)-3-methylpiperazin-1-yl]-2H-chromen-2-one] | < 0.1 | < 300 | ***** (fold increase >1.65) |  |  |  | 
4 | C[C@@H]1CN(c2ccc3cc(-c4cc5ncccn5c4)c(=O)oc3c2)C[C@H](C)N1 [Compound 580, 7-[(3R,5S)-3,5-dimethylpiperazin-1-yl]-3-(pyrrolo[1,2-a]pyrimidin-7-yl)-2H-chromen-2-one] | 1 to 3 |  | * (maximum fold increase of ≤1.2) |  |  |  | 
5 | Cc1cn2cc(-c3cc4ccc(N5CCN[C@H](C)C5)cc4oc3=O)ccc2n1 [Compound 652, 3-(2-methylimidazo[1,2-a]pyridin-6-yl)-7-[(3R)-3-methylpiperazin-1-yl]-2H-chromen-2-one] | < 0.1 | < 300 | **** (fold increase between >1.5 and ≤1.65) |  |  |  | 
6 | Cc1cn2cc(-c3cc4ccc(C5=CCN(C)CC5)cc4oc3=O)nc2c(C)n1 [Compound 800, 3-(6,8-dimethylimidazo[1,2-a]pyrazin-2-yl)-7-(1-methyl-1,2,3,6-tetrahydropyridin-4-yl)-2H-chromen-2-one] |  |  |  | < 0.1 | ***** (key: *: maximum fold increase of ≤1.2; **: fold increase between >1.2 and ≤1.35; ***: fold increase between >1.35 and ≤1.5; ****: fold increase between >1.5 and ≤1.65; *****: fold increase >1.65) | < 300 | 
7 | Cc1cn2cc(-c3cc4ccc(N5C[C@@H]6C[C@H]5CN6)cc4oc3=O)nc2c(C)n1 [Compound 648, 7-[(1S,4S)-2,5-diazabicyclo[2.2.1]hept-2-yl]-3-(6,8-dimethylimidazo[1,2-a]pyrazin-2-yl)-2H-chromen-2-one] | < 0.1 | < 300 | ***** (fold increase >1.65) |  |  |  | 
8 | CN1CCN(c2cc(F)c3cc(-c4cn5cccnc5n4)c(=O)oc3c2)CC1 [Compound 351, 5-fluoro-3-(imidazo[1,2-a]pyrimidin-2-yl)-7-(4-methylpiperazin-1-yl)-2H-chromen-2-one] | 0.3 to 1 |  | * (maximum fold increase of ≤1.2) |  |  |  | 
9 | Cc1cn2cc(-c3cc4ccc(C5CCN(C)CC5)cc4oc3=O)nc2c(C)n1 [Compound 748, 3-(6,8-dimethylimidazo[1,2-a]pyrazin-2-yl)-7-(1-methylpiperidin-4-yl)-2H-chromen-2-one] | < 0.1 | < 300 | ***** (fold increase >1.65) |  |  |  | 
10 | Cc1nccn2cc(-c3cc4ccc(N5CCN[C@H](C)C5)cc4oc3=O)nc12 [Compound 559, 3-(8-methylimidazo[1,2-a]pyrazin-2-yl)-7-[(3R)-3-methylpiperazin-1-yl]-2H-chromen-2-one] | 0.3 to 1 |  | *** (fold increase between >1.35 and ≤1.5) |  |  |  | 
11 | Cc1cn2cc(-c3cc4ccc(N5CCN(C(C)C)[C@H](C)C5)cc4oc3=O)cc2c(C)n1 [Compound 813, 3-(1,3-dimethylpyrrolo[1,2-a]pyrazin-7-yl)-7-[(3R)-3-methyl-4-(propan-2-yl)piperazin-1-yl]-2H-chromen-2-one] | < 0.1 | < 300 | **** (fold increase between >1.5 and ≤1.65) |  |  |  | 
12 | Cc1cn2cc(-c3cc4ccc(N5CCC6(CC5)CNC6)cc4oc3=O)nc2c(C)n1 [Compound 976, 7-(2,7-diazaspiro[3.5]non-7-yl)-3-(6,8-dimethylimidazo[1,2-a]pyrazin-2-yl)-2H-chromen-2-one] | < 0.1 | 1000 to 3000 | *** (fold increase between >1.35 and ≤1.5) |  |  |  | 
13 | Cc1csc(-c2cc3ccc(N4CCNCC4)cc3oc2=O)n1 [Compound 37, 3-(4-methyl-1,3-thiazol-2-yl)-7-(piperazin-1-yl)-2H-chromen-2-one] |  |  | ** (fold increase between >1.2 and ≤1.35) | 1 to 3 |  |  | 
14 | Cc1cn2cc(-c3cc4ccc(N5CC(CN)C5)cc4oc3=O)nc2c(C)n1 [Compound 963, 7-[3-(aminomethyl)azetidin-1-yl]-3-(6,8-dimethylimidazo[1,2-a]pyrazin-2-yl)-2H-chromen-2-one] | 0.3 to 1 |  | *** (fold increase between >1.35 and ≤1.5) |  |  |  | 
15 | O=c1oc2cc(N3CCNCC3)ccc2cc1-c1nc2c(Cl)cccc2s1 [Cpd 5, 3-(4-chloro-1,3-benzothiazol-2-yl)-7-(piperazin-1-yl)-2H-chromen-2-one hydrochloride] | 0.3 to 1 |  | * (maximum fold increase of ≤1.2) |  |  |  | 
16 | O=c1oc2cc(N3CCNCC3)ccc2cc1-c1nc2ncccc2o1 [Compound 110, 3-([1,3]oxazolo[4,5-b]pyridin-2-yl)-7-(piperazin-1-yl)-2H-chromen-2-one hydrochloride] | 3 to 30 |  | ** (fold increase between >1.2 and ≤1.35) |  |  |  | 
17 | Cc1cn2cc(-c3cc4ccc(N5CCN(C)CC5)cc4oc3=O)nc2c(C)n1 [Compound 516, 3-(6,8-dimethylimidazo[1,2-a]pyrazin-2-yl)-7-(4-methylpiperazin-1-yl)-2H-chromen-2-one] | < 0.1 | < 300 | ***** (fold increase >1.65) |  |  |  | 
18 | Cc1cn2cc(-c3cc4ccc(N5CC[C@@H](CN)C5)cc4oc3=O)nc2c(C)n1 [Compound 964, 7-[(3S)-3-(aminomethyl)pyrrolidin-1-yl]-3-(6,8-dimethylimidazo[1,2-a]pyrazin-2-yl)-2H-chromen-2-one] | 0.1 to 0.3 |  | ** (fold increase between >1.2 and ≤1.35) |  |  |  | 
19 | CN(C)[C@H]1[C@@H]2CN(c3ccc4cc(-c5cn6cccnc6n5)c(=O)oc4c3)C[C@@H]21 [Compound 439, 7-[(1R,5S,6s)-6-(dimethylamino)-3-azabicyclo[3.1.0]hex-3-yl]-3-(imidazo[1,2-a]pyrimidin-2-yl)-2H-chromen-2-one] |  |  | ** (fold increase between >1.2 and ≤1.35) |  |  |  | * (between >3 μM and ≤30 μM)
20 | COCCN1CCN(c2ccc3cc(-c4cc5c(C)nc(C)cc5s4)c(=O)oc3c2)CC1 [Compound 820, 3-(4,6-dimethylthieno[3,2-c]pyridin-2-yl)-7-[4-(2-methoxyethyl)piperazin-1-yl]-2H-chromen-2-one] | 0.3 to 1 |  | ** (fold increase between >1.2 and ≤1.35) |  |  |  | 
21 | Cc1cn2cc(-c3cc4ccc(CCCNCCO)cc4oc3=O)nc2c(C)n1 [Compound 879, 3-(6,8-dimethylimidazo[1,2-a]pyrazin-2-yl)-7-{3-[(2-hydroxyethyl)amino]propyl}-2H-chromen-2-one] | < 0.1 | < 300 | **** (fold increase between >1.5 and ≤1.65) |  |  |  | 
22 | CC(C)(C)OC(=O)N[C@H]1CCN(c2ccc3cc(-c4cn5cc(Cl)ccc5n4)c(=O)oc3c2)C1 [Compound 106, tert-butyl {(3S)-1-[3-(6-chloroimidazo[1,2-a]pyridin-2-yl)-2-oxo-2H-chromen-7-yl]pyrrolidin-3-yl}carbamate] | 3 to 30 |  | * (maximum fold increase of ≤1.2) |  |  |  | 
23 | Cc1cn2cc(-c3cc4ccc(N5CCNCC5)cc4oc3=O)ccc2n1 [Compound 677, 3-(2-methylimidazo[1,2-a]pyridin-6-yl)-7-(piperazin-1-yl)-2H-chromen-2-one] | < 0.1 | < 300 | **** (fold increase between >1.5 and ≤1.65) |  |  |  | 
24 | CCN1CCN(c2ccc3cc(-c4cn5cc(C)nc(C)c5n4)c(=O)oc3c2)CC1C (stereo not drawn) [Compound 852, 3-(6,8-dimethylimidazo[1,2-a]pyrazin-2-yl)-7-(4-ethyl-3-methylpiperazin-1-yl)-2H-chromen-2-one] | < 0.1 | < 300 | **** (fold increase between >1.5 and ≤1.65) |  |  |  | 
25 | C[C@@H]1CN(c2ccc3cc(-c4cn5ccccc5n4)c(=O)oc3c2)C[C@H](C)N1C [Compound 140, 3-(imidazo[1,2-a]pyridin-2-yl)-7-[(3R,5S)-3,4,5-trimethylpiperazin-1-yl]-2H-chromen-2-one] | 0.3 to 1 |  | ** (fold increase between >1.2 and ≤1.35) |  |  |  | 
